# Like-named read-outs stand apart in the source and are kept apart here.
# Tested on: Escherichia coli
# Test: MIC, micro-dilution broth method (CLSI)
# Format: cell-based
smiles,measurement,setting,value
"Fc1ccc(COc2cccc(-c3n[nH]cc3-c3ccncc3)c2)cc1 [Compound 2, 4-(3-(3-((4-fluorobenzyl)oxy)phenyl)-1H-pyrazol-4-yl)pyridine]",MIC,E. coli AR-0349 (colistin-resistant clinical isolate),>32 µg/mL
same,MIC,E. coli AR-0549,>32 µg/mL
same,MIC,"Escherichia coli, ATCC25922, E. coli ATCC 25922, read-out: MIC",8 µg/mL
same,MIC,"Escherichia coli, ATCCBAA2340, E. coli ATCC BAA-2340, read-out: MIC",> 32 µg/mL
same,MIC,"Escherichia coli, ATCCBAA2469, E. coli ATCC BAA-2469, read-out: MIC",> 32 µg/mL
same,MIC,"Escherichia coli, ATCCBAA2471, E. coli ATCC BAA-2471, read-out: MIC",> 32 µg/mL
same,MIC,"Escherichia coli, E. coli AR0048, read-out: MIC",> 32 µg/mL
same,MIC,"Escherichia coli, E. coli AR0055, read-out: MIC",> 32 µg/mL
same,MIC,"Escherichia coli, E. coli AR0058, read-out: MIC",> 32 µg/mL
same,MIC,"Escherichia coli, E. coli AR0061, read-out: MIC",> 32 µg/mL
same,MIC,"Escherichia coli, E. coli AR0067, read-out: MIC",> 32 µg/mL
same,MIC,"Escherichia coli, E. coli AR0069, read-out: MIC",> 32 µg/mL
same,MIC,"Escherichia coli, E. coli AR0077, read-out: MIC",8 µg/mL
same,MIC,"Escherichia coli, E. coli AR0081, read-out: MIC",16 µg/mL
same,MIC,"Escherichia coli, E. coli AR0084, read-out: MIC",> 32 µg/mL
same,MIC,"Escherichia coli, E. coli AR0085, read-out: MIC",> 32 µg/mL
same,MIC,"Escherichia coli, E. coli AR0086, read-out: MIC",8 µg/mL
same,MIC,"Escherichia coli, E. coli AR0089, read-out: MIC",> 32 µg/mL
same,MIC,"Escherichia coli, E. coli AR0104, read-out: MIC",16 µg/mL
same,MIC,"Escherichia coli, E. coli AR0114, read-out: MIC",> 32 µg/mL
same,MIC,"Escherichia coli, E. coli AR0118, read-out: MIC",16 µg/mL
same,MIC,"Escherichia coli, E. coli AR0119, read-out: MIC",> 32 µg/mL
same,MIC,"Escherichia coli, E. coli AR0128, read-out: MIC",16 µg/mL
same,MIC,"Escherichia coli, E. coli AR0137, read-out: MIC",16 µg/mL
same,MIC,"Escherichia coli, E. coli AR0149, read-out: MIC",> 32 µg/mL
same,MIC,"Escherichia coli, E. coli AR0150, read-out: MIC",16 µg/mL
same,MIC,"Escherichia coli, E. coli AR0151, read-out: MIC",> 32 µg/mL
same,MIC,"Escherichia coli, E. coli AR0162, read-out: MIC",> 32 µg/mL
same,MIC,"Escherichia coli, E. coli AR0346, read-out: MIC",> 32 µg/mL
same,MIC,"Escherichia coli, E. coli AR0348, read-out: MIC",> 32 µg/mL
same,MIC,"Escherichia coli, E. coli AR0350, read-out: MIC",> 32 µg/mL
same,MIC,"Escherichia coli, E. coli AR0493, read-out: MIC",> 32 µg/mL
same,MIC,"Escherichia coli, E. coli AR0494, read-out: MIC",> 32 µg/mL
same,MIC,"Escherichia coli, E. coli AR0495, read-out: MIC",> 32 µg/mL
same,MIC,"Escherichia coli, E. coli AR0541, read-out: MIC",> 32 µg/mL
same,MIC,"Escherichia coli, E. coli AR0543, read-out: MIC",> 32 µg/mL
same,MIC,"Escherichia coli, E. coli AR0546, read-out: MIC",> 32 µg/mL
same,MIC,"Escherichia coli, E. coli AR0551, read-out: MIC",> 32 µg/mL
same,MIC,"Escherichia coli, E. coli AR0559, read-out: MIC",> 32 µg/mL
same,MIC,"Escherichia coli, E. coli AR-0349 (colistin-resistant clinical isolate), read-out: MIC",> 32 µg/mL
same,MIC,"Escherichia coli, E. coli AR-0549, read-out: MIC",> 32 µg/mL
same,MIC,"Escherichia coli, E. coli ELZ 4004, read-out: MIC",> 32 µg/mL
same,MIC,"Escherichia coli, E. coli ELZ 4017, read-out: MIC",8 µg/mL
same,MIC,"Escherichia coli, E. coli ELZ 4042, read-out: MIC",> 32 µg/mL
same,MIC,"Escherichia coli, E. coli ELZ 4072, read-out: MIC",8 µg/mL
same,MIC,"Escherichia coli, E. coli ELZ 4081, read-out: MIC",4 µg/mL
same,MIC,"Escherichia coli, E. coli ELZ 4139, read-out: MIC",> 32 µg/mL
same,MIC,"Escherichia coli, E. coli ELZ 4239, read-out: MIC",> 32 µg/mL
same,MIC,"Escherichia coli, E. coli ELZ 4277, read-out: MIC",> 32 µg/mL
same,MIC,"Escherichia coli, E. coli ELZ 4346, read-out: MIC",> 32 µg/mL
same,MIC,"Escherichia coli, E. coli ΔrfaC JW3596 (permeability mutant)",1 µg/mL
same,MIC,"Escherichia coli, E. coli ΔtolC JW5503 (efflux-deficient)",0.06 µg/mL
